# Laboratory results from patent US12129312B2, “Peptide compound, application thereof and composition containing same” (priority 2017, dated 2024).
# Numbered stars: 1 amine (or outer) side, 2 acyl side, 3 side chain; on linkers, the order of the positions; unused ones are H or OH. Square brackets hold non-standard residues; d marks the D form. Peptide text beside a SMILES is read from it. * marks the point of attachment. X7 = O=C([C@@H](Cc1ccc(O)cc1)NC(=S)NCCc1ccccc1)*; dTyr(3-F) = N[C@H](Cc1ccc(O)c(F)c1)C(=O)O; PEG8 = NCCOCCOCCOCCOCCOCCOCCOCCOCCC(=O)O; X6 = CCCN([C@@H](CC(C)C)C(=O)[*:2])[*:1]; Pro(4,4-F2) = O=C(O)[C@@H]1CC(F)(F)CN1; X5 = O=C([C@H]1c2ccccc2CCN1[*:1])[*:2]; 1Nal = N[C@@H](Cc1cccc2ccccc12)C(=O)O; 2Nal = N[C@@H](Cc1ccc2ccccc2c1)C(=O)O; X10 = CN(C)[C@H](Cc1ccc(O)cc1)C(=O)*; dNMeY = CN[C@H](Cc1ccc(O)cc1)C(=O)O; X3 = O=C(N1Cc2ccccc2CN1[*:1])[*:2]; Hydrocinnamoyl = O=C(CCc1ccccc1)*; NMehLeu = CN[C@@H](CCC(C)C)C(=O)O; Palmitoyl = CCCCCCCCCCCCCCCC(=O)*; Myristoyl = CCCCCCCCCCCCCC(=O)*; Tic = O=C(O)[C@@H]1Cc2ccccc2CN1; NMeL = CN[C@@H](CC(C)C)C(=O)O; X9 = O=C(c1ccc(O)c(O)c1O)*; NMeS = CN[C@@H](CO)C(=O)O; βAla = NCCC(=O)O
# Target: T1, human Chemokine like receptor 1 (Homo sapiens, UniProt Q99788)
# T1 construct: host or cells: U2OS (Tango CMKLR1-bla U2OS)
# T1 sequence (Q99788 1-373): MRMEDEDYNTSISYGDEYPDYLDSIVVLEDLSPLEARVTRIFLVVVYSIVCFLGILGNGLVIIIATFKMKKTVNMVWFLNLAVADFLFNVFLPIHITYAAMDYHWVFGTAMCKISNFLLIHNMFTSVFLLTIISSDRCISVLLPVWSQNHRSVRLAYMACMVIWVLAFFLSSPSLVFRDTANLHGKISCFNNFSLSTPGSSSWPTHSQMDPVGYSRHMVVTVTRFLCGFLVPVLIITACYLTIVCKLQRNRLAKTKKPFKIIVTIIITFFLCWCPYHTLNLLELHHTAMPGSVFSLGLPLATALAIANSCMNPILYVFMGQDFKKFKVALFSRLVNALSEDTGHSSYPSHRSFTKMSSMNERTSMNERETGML
# Experiment: Activation of Tango CMKLR1-bla U2OS cells (beta-lactamase FRET reporter)
# Format: cell-based
# Settings: not given
# Procedure, shortened: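 Agonist mode in Tango CMKLR1-bla U2OS cells, 10000 cells/well seeded overnight, then 10-point 3-fold compound dilutions from 10 mM DMSO stock applied for 4 h at 37 °C, 5% CO2. Beta-lactamase reporter read with CCF4-AM FRET substrate; peptide (D-Tyr)-Phe-Leu-Pro-(D-Ser)-Gln-Phe-(D-Ala)-Tic-Ser served as positive control.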
row,Compound,EC50
1,"CC(C)CC[C@@H](C(=O)N1CCC[C@H]1C(=O)N[C@H](CO)C(=O)N[C@@H](CCC(N)=O)C(=O)N[C@@H](Cc1ccccc1)C(=O)N[C@H](C)C(=O)N1Cc2ccccc2C[C@H]1C(=O)N[C@@H](CO)C(=O)O)N(C)C(=O)[C@H](Cc1ccccc1)NC(=O)[C@H](N)Cc1ccc(O)cc1 [YW-101, (D-Tyr)-Phe-(NMe-HoLeu)-Pro-(D-Ser)-Gln-Phe-(D-Ala)-Tic-Ser-OH] (H-[dY]F[NMehLeu]P[dS]QF[dA][Tic]S-OH)",2.9 nM
2,"CC(C)C[C@H](NC(=O)[C@H](Cc1ccccc1)NC(=O)[C@H](N)Cc1ccc(O)cc1)C(=O)N1CCC[C@H]1C(=O)N[C@H](CO)C(=O)N[C@@H](CCC(N)=O)C(=O)N[C@@H](Cc1cccc2ccccc12)C(=O)N[C@H](C)C(=O)N1Cc2ccccc2C[C@H]1C(=O)N[C@@H](CO)C(=O)O [YW-117, (D-Tyr)-Phe-Leu-Pro-(D-Ser)-Gln-1Nal-(D-Ala)-Tic-Ser-OH] (H-[dY]FLP[dS]Q[1Nal][dA][Tic]S-OH)",3.9 nM

# Same assay, conditions: Tango CMKLR1-bla U2OS cells, 4 hours incubation, four-parameter fit of activation rate
row,Compound,EC50
1,"CC(C)C[C@H](NC(=O)[C@H](Cc1ccccc1)NC(=O)[C@H](N)Cc1ccc(O)cc1)C(=O)N1CCC[C@H]1C(=O)N[C@H](CO)C(=O)N[C@@H](CCC(N)=O)C(=O)N[C@H](CO)C(=O)N[C@H](C)C(=O)N1Cc2ccccc2CN1C(=O)N[C@@H](CO)C(=O)O [YW-147, (D-Tyr)-Phe-Leu-Pro-(D-Ser)-Gln-(D-Ser)-(D-Ala)-azaTic-Ser-OH] (H-[dY]FLP[dS]Q[dS][dA][X3]S-OH; N-terminus assumed)",no fit

# Same assay, conditions: determination by the method of Effect Embodiment 1; read-out: EC50
row,Compound,EC50
1,"CC(C)C[C@@H](C(=O)N1CCC[C@H]1C(=O)N[C@H](CO)C(=O)N[C@@H](CCC(N)=O)C(=O)N[C@@H](Cc1ccccc1)C(=O)N[C@H](C)C(=O)N1Cc2ccccc2C[C@H]1C(=O)N[C@@H](CO)C(N)=O)N(C)C(=O)[C@H](Cc1ccccc1)NC(=O)[C@H](N)Cc1ccc(O)cc1 [YW-190, (D-Tyr)-Phe-(NMe-Leu)-Pro-(D-Ser)-Gln-Phe-(D-Ala)-Tic-Ser-NH2] (H-[dY]F[NMeL]P[dS]QF[dA][Tic]S-NH2; N-terminus assumed)",2.7 nM
2,"CC(C)C[C@H](NC(=O)[C@H](Cc1ccccc1)NC(=O)[C@H](N)Cc1ccc(O)cc1)C(=O)N1CCC[C@H]1C(=O)N[C@H](CO)C(=O)N[C@@H](CCC(N)=O)C(=O)N[C@H](CO)C(=O)N[C@H](C)C(=O)N1Cc2ccccc2CN1C(=O)N[C@@H](CO)C(=O)O [YW-147, (D-Tyr)-Phe-Leu-Pro-(D-Ser)-Gln-(D-Ser)-(D-Ala)-azaTic-Ser-OH] (H-[dY]FLP[dS]Q[dS][dA][X3]S-OH; N-terminus assumed)",> 50000 nM
3,"CC(C)C[C@H](NC(=O)[C@H](Cc1ccccc1)NC(=O)[C@@H](Cc1ccc(O)cc1)NC(=O)c1ccc(O)c(O)c1O)C(=O)N1CCC[C@H]1C(=O)N[C@H](CO)C(=O)N[C@@H](CCC(N)=O)C(=O)N[C@@H](Cc1ccccc1)C(=O)N[C@H](C)C(=O)N1Cc2ccccc2C[C@H]1C(=O)N[C@@H](CO)C(=O)O [YW-129, 2,3,4-Trihydroxybenzoyl-(D-Tyr)-Phe-Leu-Pro-(D-Ser)-Gln-Phe-(D-Ala)-Tic-Ser-OH] (X9-[dY]FLP[dS]QF[dA][Tic]S-OH)",9.1 nM
4,"CC(C)C[C@H](NC(=O)[C@H](Cc1ccccc1)NC(=O)[C@H](N)Cc1ccc(O)cc1)C(=O)N1CCC[C@H]1C(=O)N[C@H](CO)C(=O)N[C@@H](CCC(N)=O)C(=O)N[C@@H](Cc1ccccc1)C(=O)N[C@H](C)C(=O)N1CCc2ccccc2[C@@H]1C(=O)N[C@@H](CO)C(=O)O [YW-151, (D-Tyr)-Phe-Leu-Pro-(D-Ser)-Gln-Phe-(D-Ala)-D-Ti1c-Ser-OH] (H-[dY]FLP[dS]QF[dA][X5]S-OH)",27 nM
5,"CC(C)C[C@@H](C(=O)N1CCC[C@H]1C(=O)N[C@H](CO)C(=O)N[C@@H](CCC(N)=O)C(=O)N[C@@H](Cc1ccccc1)C(=O)N[C@H](C)C(=O)N1Cc2ccccc2C[C@H]1C(=O)N[C@@H](CO)C(=O)O)N(C)C(=O)[C@H](Cc1ccccc1)NC(=O)[C@@H](Cc1ccc(O)cc1)N(C)C [YW-192, DiMe-(D-Tyr)-Phe-(NMe-Leu)-Pro-(D-Ser)-Gln-Phe-(D-Ala)-Tic-Ser] (X10-F[NMeL]P[dS]QF[dA][Tic]S-OH)",2.6 nM
6,"CC(C)C[C@@H](C(=O)N1CCC[C@H]1C(=O)N[C@H](CO)C(=O)N[C@@H](CCC(N)=O)C(=O)N[C@@H](Cc1ccccc1)C(=O)N[C@H](C)C(=O)N1Cc2ccccc2C[C@H]1C(=O)N[C@@H](CO)C(=O)O)N(C)C(=O)[C@H](Cc1ccccc1)NC(=O)[C@H](N)Cc1ccc(O)cc1 [YW-98, (D-Tyr)-Phe-(NMe-Leu)-Pro-(D-Ser)-Gln-Phe-(D-Ala)-Tic-Ser-OH] (H-[dY]F[NMeL]P[dS]QF[dA][Tic]S-OH)",3 nM
7,"CC(C)C[C@H](NC(=O)[C@H](Cc1ccccc1)NC(=O)[C@@H](Cc1ccc(O)cc1)NC(=S)NCCc1ccccc1)C(=O)N1CCC[C@H]1C(=O)N[C@H](CO)C(=O)N[C@@H](CCC(N)=O)C(=O)N[C@@H](Cc1ccccc1)C(=O)N[C@H](C)C(=O)N1Cc2ccccc2C[C@H]1C(=O)N[C@@H](CO)C(=O)O [YW-73, Phenethylcarbamothioyl-(D-Tyr)-Phe-Leu-Pro-(D-Ser)-Gln-Phe-(D-Ala)-Tic-Ser-OH] (X7-FLP[dS]QF[dA][Tic]S-OH)",28 nM
8,"CC(C)C[C@@H](C(=O)N1CCC[C@H]1C(=O)N[C@H](CO)C(=O)N[C@@H](CCC(N)=O)C(=O)N[C@@H](Cc1ccccc1)C(=O)N[C@H](C)C(=O)N1Cc2ccccc2C[C@H]1C(=O)N(C)[C@@H](CO)C(=O)O)N(C)C(=O)[C@H](Cc1ccccc1)NC(=O)[C@H](N)Cc1ccc(O)cc1 [YW-166, (D-Tyr)-Phe-(NMe-Leu)-Pro-(D-Ser)-Gln-Phe-(D-Ala)-Tic-(NMe-Ser)-OH] (H-[dY]F[NMeL]P[dS]QF[dA][Tic][NMeS]-OH)",5 nM
9,"CCCCCCCCCCCCCCCC(=O)NCCOCCOCCOCCOCCOCCOCCOCCOCCC(=O)NCCC(=O)NCCC(=O)N(C)[C@H](Cc1ccc(O)cc1)C(=O)N[C@@H](Cc1ccccc1)C(=O)N(C)[C@@H](CC(C)C)C(=O)N1CCC[C@H]1C(=O)N[C@H](CO)C(=O)N[C@@H](CCC(N)=O)C(=O)N[C@@H](Cc1ccc2ccccc2c1)C(=O)N[C@H](C)C(=O)N1Cc2ccccc2C[C@H]1C(=O)N(C)[C@@H](CO)C(=O)O [YW-179, Palm-PEG8-(beta-Ala)-(beta-Ala)-(D-NMeTyr)-Phe-(NMe-Leu)-Pro-(D-Ser)-Gln-2Nal-(D-Ala)-Tic-(NMe-Ser)] ({Palmitoyl-PEG8-βAla-βAla}-[dNMeY]F[NMeL]P[dS]Q[2Nal][dA][Tic][NMeS]-OH)",2.1 nM
10,"CCCCCCCCCCCCCC(=O)NCCOCCOCCOCCOCCOCCOCCOCCOCCC(=O)NCCC(=O)NCCC(=O)N(C)[C@H](Cc1ccc(O)cc1)C(=O)N[C@@H](Cc1ccccc1)C(=O)N(C)[C@@H](CC(C)C)C(=O)N1CCC[C@H]1C(=O)N[C@H](CO)C(=O)N[C@@H](CCC(N)=O)C(=O)N[C@@H](Cc1ccc2ccccc2c1)C(=O)N[C@H](C)C(=O)N1Cc2ccccc2C[C@H]1C(=O)N(C)[C@@H](CO)C(=O)O [YW-180, Tetradecanoyl-PEG8-βAla-βAla-(D-NMe-Tyr)-Phe-(NMe-Leu)-Pro-(D-Ser)-Gln-2Nal-(D-Ala)-Tic-(NMe-Ser)] ({Myristoyl-PEG8-βAla-βAla}-[dNMeY]F[NMeL]P[dS]Q[2Nal][dA][Tic][NMeS]-OH)",1.4 nM
11,"CCCCCCCCCCCCCCCC(=O)NCCOCCOCCOCCOCCOCCOCCOCCOCCC(=O)NCC(=O)NCC(=O)N(C)[C@H](Cc1ccc(O)cc1)C(=O)N[C@@H](Cc1ccccc1)C(=O)N(C)[C@@H](CC(C)C)C(=O)N1CCC[C@H]1C(=O)N[C@H](CO)C(=O)N[C@@H](CCC(N)=O)C(=O)N[C@@H](Cc1ccc2ccccc2c1)C(=O)N[C@H](C)C(=O)N1Cc2ccccc2C[C@H]1C(=O)N(C)[C@@H](CO)C(=O)O [YW-178, Palm-PEG8-Gly-Gly-(D-NMe-Tyr)-Phe-(NMe-Leu)-Pro-(D-Ser)-Gln-2Nal-(D-Ala)-Tic-(NMe-Ser)] ({Palmitoyl-PEG8}-GG[dNMeY]F[NMeL]P[dS]Q[2Nal][dA][Tic][NMeS]-OH)",2.1 nM
12,"CC(C)C[C@@H](C(=O)N1CC(F)(F)C[C@H]1C(=O)N[C@H](CO)C(=O)N[C@@H](CCC(N)=O)C(=O)N[C@@H](Cc1ccc2ccccc2c1)C(=O)N[C@H](C)C(=O)N1Cc2ccccc2C[C@H]1C(=O)N(C)[C@@H](CO)C(=O)O)N(C)C(=O)[C@H](Cc1ccccc1)NC(=O)[C@H](N)Cc1ccc(O)c(F)c1 [YW-226, (D-Tyr(3F))-Phe-(NMe-Leu)-(DiFluorPro)-(D-Ser)-Gln-(Nal-2)-(D-Ala)-Tic-(NMe-Ser)] (H-[dTyr(3-F)]F[NMeL][Pro(4,4-F2)][dS]Q[2Nal][dA][Tic][NMeS]-OH)",3.3 nM
13,"CCCN(C(=O)[C@H](Cc1ccccc1)NC(=O)[C@@H](Cc1ccc(O)cc1)NC(=O)CCc1ccccc1)[C@@H](CC(C)C)C(=O)N1CCC[C@H]1C(=O)N[C@H](CO)C(=O)N[C@@H](CCC(N)=O)C(=O)N[C@@H](Cc1ccccc1)C(=O)N[C@H](C)C(=O)N1Cc2ccccc2C[C@H]1C(=O)N[C@@H](CO)C(=O)O [YW-186, 3-Phenylpropanoyl-(D-Tyr)-Phe-(NPr-Leu)-Pro-(D-Ser)-Gln-Phe-(D-Ala)-Tic-Ser] (Hydrocinnamoyl-[dY]F[X6]P[dS]QF[dA][Tic]S-OH)",11 nM
14,"CN[C@H](Cc1ccc(O)cc1)C(=O)N[C@@H](Cc1ccccc1)C(=O)N(C)[C@@H](CC(C)C)C(=O)N1CCC[C@H]1C(=O)N[C@H](CO)C(=O)N[C@@H](CCC(N)=O)C(=O)N[C@@H](Cc1ccccc1)C(=O)N[C@H](C)C(=O)N1Cc2ccccc2C[C@H]1C(=O)N[C@@H](CO)C(=O)O [YW-163, (D-NMe-Tyr)-Phe-(NMe-Leu)-Pro-(D-Ser)-Gln-Phe-(D-Ala)-Tic-Ser-OH] (H-[dNMeY]F[NMeL]P[dS]QF[dA][Tic]S-OH)",2.2 nM
